From patent publication US20050020576A1, “Kappa agonist compounds and pharmaceutical formulations thereof” (priority 1996, published 2005) come the findings set out here.

Where “and” joins values, the source holds several entries; their conditions need not be identical. Equal entries are not always repeated. Structures can show the parent of a compound that is named as a salt.

Test [1] deals with formalin-induced flinching. Description: animal or person. Type of test: in vivo, male Sprague-Dawley rats. Particulars: rat, in vivo.
Test [2] addresses T1, cloned human kappa receptor (Homo sapiens, UniProt P41145). Kind of test: biochemical. Particulars: for inhibition at 1 µM: read-out: 3H-Diprenorphin, % @ 1 uM. Type of test: binding. Also on record: (3H)-Diprenorphin, % / k [3H] Diprenorphin, %: dose or concentration left out as unconfirmed.
Test [3] has as its target T1, cloned human kappa receptor. Kind of test: [3H]U69593 (agonist) binding to the cloned human kappa receptor.

T1 sequence (P41145 whole entry): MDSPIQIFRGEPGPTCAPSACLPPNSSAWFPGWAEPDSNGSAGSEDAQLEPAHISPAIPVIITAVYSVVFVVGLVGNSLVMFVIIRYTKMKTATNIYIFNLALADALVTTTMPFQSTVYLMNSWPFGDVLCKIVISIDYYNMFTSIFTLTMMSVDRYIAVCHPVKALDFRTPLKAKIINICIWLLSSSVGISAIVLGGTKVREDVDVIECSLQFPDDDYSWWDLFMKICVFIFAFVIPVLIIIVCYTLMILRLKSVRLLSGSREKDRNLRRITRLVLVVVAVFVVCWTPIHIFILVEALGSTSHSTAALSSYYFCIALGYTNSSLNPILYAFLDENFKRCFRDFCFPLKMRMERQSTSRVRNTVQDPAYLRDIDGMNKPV

In the case of `CS(=O)(=O)N1CCN(C(=O)Cc2ccc(Cl)c(Cl)c2)C(CN2CCCC2)C1` (racemic) [(R,S-8a), (R,S)-4-Methanesulfonyl-1-[(3,4-dichlorophenyl)acetyl]-2-[(1-pyrrolidinyl)methyl]-piperazine hydrochloride], the “Late Phase Formalin, % @ 300; i.paw” value in test [1] was determined as 96% @ 300. Also, the Ki (in general, the dissociation constant of the complex between target and ligand, obtained from inhibition or displacement) in test [2] (Ki, nM 3H-Diprenorphin) is 5.4 nM and 4 nM; in test [3] (Ki, nM 3H-U-69,593) it was 0.37 nM and 0.65 nM.
Take `CS(=O)(=O)N1CCN(C(=O)Cc2ccc(C(F)(F)F)cc2)C(CN2CCCC2)C1` (racemic) [(R,S-8d), (R,S)-4-Methanesulfonyl-1-[(4-trifluoromethylphenyl)acetyl]-2-[(1-pyrrolidinyl)-methyl]piperazine hydrochloride]: the “Late Phase Formalin, % @ 300; i.paw” value in test [1] stood at 97% @ 300. Also, the Ki in test [2] (Ki, nM 3H-Diprenorphin) is 16 nM and 17 nM; in test [3] (Ki, nM 3H-U-69,593), 1.3 nM and 1.9 nM.
Take `CS(=O)(=O)N1CCN(C(=O)Cc2c[nH]c3ccccc23)C(CN2CCCC2)C1` (racemic) [(R,S-8e), (R,S)-4-Methanesulfonyl-1-[(3-indolylacetyl-2-[(1-pyrrolidinyl)-methyl]piperazine hydrochloride]: in test [2], the inhibition at 1 µM was found to be 74%. The Ki in test [3] (Ki, nM 3H-U-69,593) was 5.3 nM and 3.2 nM.
Turning to `COC(=O)N1CCN(C(=O)Cc2ccc(S(C)(=O)=O)cc2)C(CN2CCCC2)C1` (racemic) [(R,S-9a), (R,S)-Methyl 4-[(4-methylsulfonylphenyl)acetyl]-3-[(1-pyrrolidinyl)-methyl]-1-piperazinecarboxylate hydrochloride], the “Late Phase Formalin, % @ 300; i.paw” value in test [1] is given as 46% @ 300. Further, the Ki in test [2] (Ki, nM 3H-Diprenorphin) was 11 nM; in test [3] (Ki, nM 3H-U-69,593), 0.37 nM and 0.42 nM.
Turning to `COC(=O)N1CCN(C(=O)Cc2ccc(C(F)(F)F)cc2)C(CN2CCCC2)C1` (racemic) [(R,S-9b), (R,S)-Methyl 4-[(4-trifluoromethylphenyl)acetyl]-3-[(1-pyrrolidinyl)-methyl]-1-piperazinecarboxylate hydrochloride], the “Late Phase Formalin, % @ 300; i.paw” value in test [1] was found to be 98% @ 300. The Ki in test [2] (Ki, nM 3H-Diprenorphin) is 0.49 nM; in test [3] (Ki, nM 3H-U-69,593) it was 0.076 nM and 0.13 nM.
For the compound `COC(=O)N1CCN(C(=O)Cc2c[nH]c3ccccc23)C(CN2CCCC2)C1` (racemic) [(R,S-9c), (R,S)-Methyl 4-[(3-indolyl)acetyl]-3-[(1-pyrrolidinyl)-methyl]-1-piperazine-carboxylate hydrochloride], in test [1], the “Late Phase Formalin, % @ 300; i.paw” value was 95% @ 300. Besides, the Ki in test [2] (Ki, nM 3H-Diprenorphin) is 3 nM; in test [3] (Ki, nM 3H-U-69,593) it was 0.27 nM and 0.4 nM.
Turning to `COC(=O)N1CCN(C(=O)Cc2ccccc2[N+](=O)[O-])C(CN2CCCC2)C1` (racemic) [(R,S-9d), (R,S)-Methyl 4-[(2-nitrophenyl)acetyl]-3-[(1-Pyrrolidinyl)-methyl]-1-piperazine-carboxylate hydrochloride], in test [1], the “Late Phase Formalin, % @ 300; i.paw” value is 93% @ 300. Moreover, the Ki in test [2] (Ki, nM 3H-Diprenorphin) is 37 nM; in test [3] (Ki, nM 3H-U-69,593), 0.74 nM and 0.73 nM.
For the compound `COC(=O)N1CCN(C(=O)Cc2ccccc2OC)C(CN2CCCC2)C1` (racemic) [(R,S-9e), hydrochloride], in test [1], the “Late Phase Formalin, % @ 300; i.paw” value was 98% @ 300. Further, the Ki in test [2] (Ki, nM 3H-Diprenorphin) is 7.3 nM; in test [3] (Ki, nM 3H-U-69,593), 0.46 nM and 1.3 nM.
Regarding `COC(=O)N1CCN(C(=O)Cc2ccccc2N)C(CN2CCCC2)C1` (racemic) [(R,S-9f), (R,S)-Methyl 4-[(2-aminophenyl)acetyl]-3-[(1-pyrrolidinyl)-methyl]-1-piperazine-carboxylate dihydrochloride], the “Late Phase Formalin, % @ 300; i.paw” value in test [1] was determined as 97% @ 300. In addition, the Ki is 4.6 nM and 3.2 nM in test [2] (Ki, nM 3H-Diprenorphin); 0.67 nM and 0.41 nM in test [3] (Ki, nM 3H-U-69,593).
In the case of `CC(=O)N1CCN(C(=O)Cc2ccc(S(C)(=O)=O)cc2)C(CN2CCCC2)C1` (racemic) [(R,S-10a), hydrochloride], in test [1], the “Late Phase Formalin, % @ 300; i.paw” value was found to be 6% @ 300. In addition, the inhibition at 1 µM in test [2] is 27%. Affinity in test [3] (Ki, nM 3H-U-69,593) was put at a Ki of 2.3 nM.
Take `CC(=O)N1CCN(C(=O)Cc2ccccc2C(F)(F)F)C(CN2CCCC2)C1` (racemic) [(R,S-10c), (R,S)-4-Acetyl-1-[(2-trifluoromethylphenyl)acetyl]-3-[(1-pyrrolidinyl)-methyl]piperazinecarboxylate hydrochloride]: in test [2], the inhibition at 1 µM came out at 45%. In test [3] (Ki, nM 3H-U-69,593), this compound yielded an inhibition constant (Ki) of 16 nM.
Turning to `CC(=O)N1CCN(C(=O)Cc2cccc([N+](=O)[O-])c2)C(CN2CCCC2)C1` (racemic) [(R,S-10d), (R,S)-4-Acetyl-1-[(3-nitrophenyl)acetyl]-3-[(1-pyrrolidinyl)-methyl]piperazine-carboxylate hydrochloride], the inhibition at 1 µM in test [2] is 94%. Moreover, affinity in test [3] (Ki, nM 3H-U-69,593) was put at a Ki of 0.72 nM.
On to `CC(=O)N1CCN(C(=O)Cc2ccccc2[N+](=O)[O-])C(CN2CCCC2)C1` (racemic) [(R,S-10e), (R,S)-4-Acetyl-1-[(2-nitrophenyl)acetyl]-3-[(1-pyrrolidinyl)-methyl]piperazine-carboxylate hydrochloride], for which the Ki in test [2] (Table I, read-out: Ki, nM 3H-Diprenorphin) was 541 nM; in test [3] (Ki, nM 3H-U-69,593) it was 24 nM.
Consider `CC(=O)N1CCN(C(=O)Cc2ccc([N+](=O)[O-])cc2)C(CN2CCCC2)C1` (racemic) [(R,S-10f), hydrochloride], for which the inhibition at 1 µM in test [2] amounted to 59%. In test [3] (Ki, nM 3H-U-69,593), the Ki was determined as 2.4 nM.
Take `CN(C(=O)Cc1ccc(C(F)(F)F)cc1N(S(C)(=O)=O)S(C)(=O)=O)C1CCCCC1N1CCCC1.Cl` (racemic) [Example 5j, (±)-trans-2-Bismethanesulfonamido-4-trifluoromethyl-N-methyl-N-[2-(1-pyrrolidinyl)cyclohexyl]-phenylacetamide Hydrochloride]: the “% @ 1 μM, diprenorphine” value in test [2] is listed as 13% @ 1 μM. In test [3], the “% @ 1 μM, U-69593” value was determined as 48% @1 μM.
As to `CN(C(=O)C(c1ccccc1)c1ccccc1)C1CCCCC1N1CCCC1` (racemic) [Example 5s, (±)-trans-N-Methyl-N-[2-(1-pyrrolidinyl)cyclohexyl]2,2-dphenylacetamide Hydrochloride], the Ki in test [2] (Ki(nM) diprenorphine) turned out to be 1170 nM; in test [3] (Ki(nM) U-69593), 330 nM.
Turning to `COc1ccc2c(c1)[C@H](N(C)C(=O)C(c1ccccc1)c1ccccc1)[C@@H](N1CCCC1)CC2` (racemic) [II-2], the Ki in test [2] (Ki (nM) k [3H] Diprenorphin) is 142 nM; in test [3] (Ki (nM) k (mg) [3H]U69,593), 20 nM.
In the case of `CN(C(=O)C(c1ccccc1)c1ccccc1)[C@H]1c2cc(O)ccc2CC[C@@H]1N1CCCC1` (racemic) [II-4], the Ki in test [2] (Table II, read-out: Ki (nM) k [3H] Diprenorphin) stood at 549 nM; in test [3] (Table II, read-out: Ki (nM) k (mg) [3H]U69,593) it was 432 nM.
For the compound `CCOC(=O)CN(CC(=O)OCC)c1ccc2c(c1)[C@H](N(C)C(=O)Cc1ccc(Cl)c(Cl)c1)[C@@H](N1CCCC1)CC2` (racemic) [II-10], the “Late Phase Formalin, % A @ 300” value in test [1] was 37% A @ 300. Moreover, the Ki in test [2] (Ki (nM) k [3H] Diprenorphin) was 4.6 nM; in test [3] (Ki (nM) k (mg) [3H]U69,593) it was 0.68 nM.
Turning to `CN(C(=O)Cc1ccc(Cl)c(Cl)c1)[C@H]1c2cc(N(CC(=O)OC(C)(C)C)CC(=O)OC(C)(C)C)ccc2CC[C@@H]1N1CCCC1` (racemic) [II-11], the Ki in test [2] (Ki (nM) k [3H] Diprenorphin) came to 7.4 nM; in test [3] (Ki (nM) k (mg) [3H]U69,593) it was 2.8 nM.
With `CN(C(=O)Cc1ccc(Cl)c(Cl)c1)[C@H]1c2cc(N(CC(=O)O)CC(=O)O)ccc2CC[C@@H]1N1CCCC1` (racemic) [II-12], the Ki came to 3.8 nM in test [2] (Ki (nM) k [3H] Diprenorphin) and 0.68 nM in test [3] (Ki (nM) k (mg) [3H]U69,593).
As to `CCOP(=O)(CCNc1ccc2c(c1)[C@H](N(C)C(=O)Cc1ccc(Cl)c(Cl)c1)[C@@H](N1CCCC1)CC2)OCC` (racemic) [II-13], the Ki in test [2] (Ki (nM) k [3H] Diprenorphin) stood at 6.2 nM; in test [3] (Ki (nM) k (mg) [3H]U69,593), 2.2 nM.
The like results for `CCOP(=O)(Nc1ccc2c(c1)[C@H](N(C)C(=O)Cc1ccc(Cl)c(Cl)c1)[C@@H](N1CCCC1)CC2)OCC` (racemic) [II-14] were, in that order, 2.4 nM and 0.6 nM.
In the same order, the values of `COc1cc2c(cc1S(=O)(=O)N(C)Cc1ccccc1)[C@H](N(C)C(=O)Cc1ccc(Cl)c(Cl)c1)[C@@H](N1CCCC1)CC2` (racemic) [II-15] are 48 nM and 8 nM.
In the case of `CN(C(=O)Cc1ccc(Cl)c(Cl)c1)[C@H]1c2cc(S(=O)(=O)N(C)Cc3ccccc3)ccc2CC[C@@H]1N1CCCC1` (racemic) [II-16], the inhibition constant Ki is 200 nM in test [2] (Ki (nM) k [3H] Diprenorphin) and 40 nM in test [3] (Ki (nM) k (mg) [3H]U69,593).
For `CN(C(=O)C(c1ccccc1)c1ccccc1)[C@H]1c2ccccc2C[C@@H]1N1CCCC1` (racemic) [II-20], the “k [3H] Diprenorphin, %” value in test [2] is given as 29% @ 1 mM. Also, the affinity in test [3] corresponds to a Ki of 146 nM.
As to `Cl.O=C(Cc1ccc(Cl)c(Cl)c1)N1CCNC[C@@H]1CN1CCCC1` [(R-2), (R)-1-[(3,4-Dichlorophenyl)acetyl]-2-[(1-pyrrolidinyl)methyl]piperazine hydrochloride], the “Late Phase Formalin, % @ 300; i.paw” value in test [1] worked out at 57% @ 300. Moreover, the Ki in test [2] (Ki, nM 3H-Diprenorphin) was 14 nM and 17 nM; in test [3] (Ki, nM 3H-U-69,593) it was 1.5 nM and 1.3 nM.
On to `CC(C)(C)CC(=O)N1CCN(C(=O)Cc2ccc(Cl)c(Cl)c2)[C@H](CN2CCCC2)C1` [(R-3b), (R)-4-t-Butyl-acetyl-1-[(3,4-dichlorophenyl)acetyl]-2-[(1-pyrrolidinyl)methyl]-piperazine], for which, in test [1], the “Late Phase Formalin column, % I @ 1 μM” value amounted to 75% I @ 1 μM. In addition, in test [2], the “3H-Diprenorphin, % @ 1 uM” value was 30% @ 1 uM. For the same compound, the “3H-U-69,593, % @ 1 uM” value in test [3] came out at 75% @ 1 uM.
As to `CC(C)(C)OC(=O)N[C@H](CC(=O)OCc1ccccc1)C(=O)N1CCN(C(=O)Cc2ccc(Cl)c(Cl)c2)[C@H](CN2CCCC2)C1` [(R-3d), (R)-4-N-t-Boc-D-aspartic acid-β-benzyl ester-1-[(3,4-dichlorophenyl)acetyl]-2-[(1-pyrrolidinyl)methyl]-piperazine], the “3H-Diprenorphin, % @ 1 uM” value in test [2] turned out to be 36% @ 1 uM. In addition, the Ki in test [3] (read-out: Ki, nM 3H-U-69,593) was 379 nM and 249 nM.
With `Cl.Cl.NC(CC(=O)O)C(=O)N1CCN(C(=O)Cc2ccc(Cl)c(Cl)c2)[C@H](CN2CCCC2)C1` (stereo partly drawn) [(R-3e), (R)-4-Aspartic acid-1-[(3,4-dichlorophenyl)acetyl]-2-[(1-pyrrolidinyl)methyl]-piperazine dihydrochloride], the “Late Phase Formalin, % @ 300; i.paw” value in test [1] was determined as 22% A @ 300. Besides, in test [2], the “3H-Diprenorphin, % @ 1 uM” value stood at 39% @ 1 uM. In test [3] (dihydrochloride, read-out: Ki, nM 3H-U-69,593), the Ki is 37 nM and 28 nM.
